Measured values published in patent publication US6911443B2 (Bayer Aktiengesellschaft, priority 2000, dated 2005).
Read-outs that look alike come from different tables or passages of the source.

Target: T1, human Syk (GST-Syk) (Homo sapiens, UniProt P43405)
T1 construct: A cDNA fragment encoding human Syk openreading frame was cloned; made in house; host or cells: Sf21 insect cells (baculovirus, transfer vector pAcG2T)
Assay: Syk tyrosine kinase inhibitory assay
Type: biochemical
How it was run: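 Readout: streptavidin-captured biotin-AL peptide probed with europium-4G10 anti-phosphotyrosine, time-resolved fluorescence (ex 340/em 615 nm). Reaction ran 1 h at room temperature with 30 μM ATP, 3 μM peptide, 0.65 nM Sf21-expressed GST-Syk and 0.25% DMSO, pH 8.0.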

[1] = in vitro, compounds as yielded by solid phase synthesis, purity about 40 to 90%, read-out: Activity grade (IC50 class)
[2] = Table 11, read-out: Activity grade
[3] = Table 13, read-out: Activity grade
[4] = in vitro, compounds as yielded by solid phase synthesis, purity about 40 to 90%
[5] = Table 17, IC50 classes, read-out: Activity grade

Row | SMILES | IC50 [1] [µM] | also measured
1 | CCSc1nc(-c2ccc(OC)c(OCCCN3CC[C@H](N(C)C)C3)c2)cc2nccn12 [Example 5-5] | 0.5 to 2 | –
2 | COc1ccc(-c2cc3nccn3c(Nc3cccc(C(F)(F)F)c3)n2)cc1OC [Example 12-13] | – | IC50 [2]: 0.5 to 2 µM
3 | COc1ccc(-c2cc3nccn3c(SCCc3cnccn3)n2)cc1OC [Example 14-32] | – | IC50 [3]: < 0.5 µM
4 | COc1ccc(-c2cc3nccn3c(SC3CCCC3)n2)cc1OC [Example 14-21] | – | IC50 [3]: < 0.5 µM
5 | CCSc1nc(-c2ccc(OC)c(OCCCN3CCN(C)CC3)c2)cc2nccn12 [Example 5-4] | 0.5 to 2 | –
6 | COc1ccc(-c2cc3nccn3c(N3CCN(c4ccc(Cl)cc4)CC3)n2)cc1OC [Example 9-39] | 2 to 10 | –
7 | CCCCCSc1nc(-c2ccc(OC)c(OC)c2)cc2nccn12 [Example 14-26] | – | IC50 [3]: 0.5 to 2 µM
8 | COc1ccc(-c2cc3nccn3c(Sc3ccc(CCC(=O)O)cc3C(N)=O)n2)cc1OC [Example 14-35] | – | IC50 [3]: 0.5 to 2 µM
9 | COc1ccc(-c2cc3nccn3c(Sc3cccc(N)c3)n2)cc1OC [Example 13-3] | < 0.5 | –
10 | CCOc1ccc(-c2cc3nccn3c(Nc3ccccc3)n2)cc1OCC [Example 12-23] | – | IC50 [2]: < 0.5 µM
11 | COc1ccc(-c2cc3nccn3c(SCC3CC3)n2)cc1OC [Example 9-7] | < 0.5 | –
12 | COc1ccc(-c2cc3nccn3c(Sc3ccc(S(=O)(=O)N4CCCC4)cc3)n2)cc1OC [Example 16-5] | – | IC50 (Table 15, read-out: Activity grade): < 0.5 µM
13 | CCSc1nc(-c2ccc(S(=O)(=O)N3CCN(C)CC3)c(OC)c2)cc2nccn12 [Example 2-9] | – | Activity grade (IC50 class) [4]: C-D
14 | COc1ccc(-c2cc3nccn3c(Sc3c(C)cccc3C)n2)cc1OC [Example 13-9] | 2 to 10 | –
15 | COc1ccc(-c2cc3nccn3c(SCCNC(=O)OC(C)(C)C)n2)cc1OC [Example 14-24] | – | IC50 [3]: 0.5 to 2 µM
16 | COc1ccc(-c2cc3nccn3c(Nc3ccc(C(=O)N(C)CCO)cc3)n2)cc1OC [compound 6] | – | IC50 [5]: < 0.5 µM
17 | COc1ccc(-c2cc3nccn3c(NCC(O)CO)n2)cc1OC (stereo not shown) [Example 9-4] | 0.5 to 2 | –
18 | COc1ccc(-c2cc3nccn3c(Oc3cccc(Br)c3)n2)cc1OC [Example 14-5] | – | IC50 [3]: 0.5 to 2 µM
19 | COc1ccc(-c2cc3nccn3c(Nc3ccccc3)n2)cc1OCCN1CCOCC1 [Example 12-25] | – | IC50 [2]: < 0.5 µM
20 | CCSc1nc(-c2ccc(OC)c(S(=O)(=O)NCCO)c2)cc2nccn12 [Example 2-2] | < 0.5 | –
21 | COc1ccc(-c2cc3nccn3c(N3CCC(O)CC3)n2)cc1OC [Example 9-69] | 0.5 to 2 | –
22 | CCSc1nc(-c2cccnc2)cc2nccn12 [Example 8-2] | 2 to 10 | –
23 | COc1ccc(Nc2nc(-c3ccc(N(C)CCCN4CCOCC4)c(OC)c3)cc3nccn23)cc1 [Example 12-55] | – | IC50 [2]: < 0.5 µM
24 | COc1ccc(-c2cc3nccn3c(Nc3cc(OC)c(OC)c(OC)c3)n2)cc1OC [Example 12-14] | – | IC50 [2]: < 0.5 µM
25 | COc1ccc(-c2cc3nccn3c(Nc3ccccn3)n2)cc1OC [Example 12-3] | – | IC50 [2]: < 0.5 µM

Row | SMILES | IC50 [1] [µM] | also measured
26 | COc1ccc(Nc2nc(-c3ccc(OC)c(OC)c3)cc3nccn23)cn1 [Example 12-4] | – | IC50 [2]: < 0.5 µM
27 | CCOC(=O)CN(C)c1nc(-c2ccc(OC)c(OC)c2)cc2nccn12 [Example 9-77] | 2 to 10 | –
28 | CCSc1nc(-c2ccc(OC(=O)OC)c(OC)c2)cc2nccn12 [Example 3-11] | < 0.5 | –
29 | COc1ccc(-c2cc3nccn3c(N3CCC(N4CCCCC4)CC3)n2)cc1OC [Example 9-63] | 2 to 10 | –
30 | COc1ccc(-c2cc3nccn3c(N3CCCCC3)n2)cc1OC [Example 9-54] | 0.5 to 2 | –
31 | CCSc1nc(-c2ccc(OC)c(OCc3ccccc3)c2)cc2nccn12 [Example 4-1] | 0.5 to 2 | –
32 | COc1ccc(-c2cc3ncnn3c(Nc3ccc4ncccc4c3)n2)cc1OC [Example 9-18] | – | Activity grade (IC50 class) [4]: C-D
33 | CCSc1nc(-c2ccc(NCCCn3ccnc3)c(OC)c2)cc2nccn12 [Example 17-11] | – | IC50 (Table 16, read-out: Activity grade): < 0.5 µM
34 | COc1ccc(-c2cc3nccn3c(NC(=O)Nc3ccccc3)n2)cc1OC [Example 22] | – | IC50 [5]: 0.5 to 2 µM
35 | COc1cc(-c2cc3nccn3c(Nc3ccccc3)n2)ccc1OCCCN1CCN(C)CC1 [Example 12-36] | – | IC50 [2]: < 0.5 µM
36 | COCCN(C)c1ccc(-c2cc3nccn3c(Nc3ccccc3S(C)(=O)=O)n2)cc1OC [Example 12-44] | – | IC50 [2]: < 0.5 µM
37 | COCCN(C)c1ccc(-c2cc3nccn3c(Nc3ccc(C)cc3)n2)cc1OC [Example 12-42] | – | IC50 [2]: < 0.5 µM
38 | COc1cc(-c2cc3nccn3c(Nc3ccc(Br)cc3)n2)ccc1N1CCOCC1 [Example 12-53] | – | IC50 [2]: < 0.5 µM
39 | CCSc1nc(-c2ccc(OC)c(OCCCN3CCCCC3)c2)cc2nccn12 [Example 5-6] | 0.5 to 2 | –
40 | COc1ccc(-c2cc3nccn3c(SCC(=O)O)n2)cc1OC [Example 26] | – | IC50 [5]: 2 to 10 µM
41 | COc1ccc(-c2cc3nccn3c(Nc3ccccc3-c3nnn[nH]3)n2)cc1OC [Example 31] | – | IC50 [5]: < 0.5 µM
42 | CCSc1nc(-c2ccc(OC(C)C)c(OC)c2)cc2nccn12 [Example 3-5] | < 0.5 | –
43 | CCSc1nc(-c2ccc(S(N)(=O)=O)c(OC)c2)cc2nccn12 [Example 2-7] | – | Activity grade (IC50 class) [4]: C-D
44 | CNC(=O)CSc1nc(-c2ccc(OC)c(OC)c2)cc2nccn12 [Example 14-33] | – | IC50 [3]: < 0.5 µM
45 | COc1ccc(-c2cc3nccn3c(Sc3cc(OC)c(OC)c(OC)c3)n2)cc1OC [Example 13-8] | < 0.5 | –
46 | COc1ccc(-c2cc3ncnn3c(Nc3ccc(/C=C/C(=O)O)cc3)n2)cc1OC [Example 9-19] | < 0.5 | –
47 | COc1ccc(-c2cc3nccn3c(Oc3cccc(C)c3)n2)cc1OC [Example 14-3] | – | IC50 [3]: 0.5 to 2 µM
48 | COc1cc(-c2cc3nccn3c(Nc3ccccc3)n2)ccc1N1CCOCC1 [Example 12-54] | – | IC50 [2]: < 0.5 µM
49 | COc1ccc(-c2cc3nccn3c(N3CCN(c4ccc(C(C)=O)cc4)CC3)n2)cc1OC [Example 9-36] | 2 to 10 | –
50 | COc1ccc(-c2cc3nccn3c(SCC(C)C)n2)cc1OC [Example 14-22] | – | IC50 [3]: < 0.5 µM

Now from value to compound, other results behind:

Row | IC50 [1] [µM] | SMILES | also measured
51 | < 0.5 | COc1ccc(-c2cc3nccn3c(Nc3ccccc3Cl)n2)cc1OC [Example 11-55] | –
52 | < 0.5 | COc1ccc(-c2cc3nccn3c(Nc3ccc(NCCCN4CCOCC4)cc3)n2)cc1OC [Example 11-90] | –
53 | 0.5 to 2 | COc1ccc(-c2cc3nccn3c(Nc3ccccc3OC(F)(F)F)n2)cc1OC [Example 11-10] | –
54 | < 0.5 | COc1ccc(-c2cc3nccn3c(Nc3ccc(F)cc3F)n2)cc1OC [Example 11-54] | –
55 | < 0.5 | COc1ccc(-c2cc3nccn3c(Nc3cccc(Br)c3)n2)cc1OC [Example 11-52] | –
56 | < 0.5 | COc1ccc(-c2cc3nccn3c(Nc3cccc(CO)c3)n2)cc1OC [Example 11-37] | –
57 | < 0.5 | CCC(=O)c1ccc(Nc2nc(-c3ccc(OC)c(OC)c3)cc3nccn23)cc1 [Example 11-35] | –
58 | < 0.5 | CCN(CCO)c1ccc(Nc2nc(-c3ccc(OC)c(OC)c3)cc3nccn23)cc1 [Example 11-68] | –
59 | < 0.5 | COc1ccc(-c2cc3nccn3c(Nc3ccc(C(=N)N)cc3)n2)cc1OC [Example 11-67] | –
60 | < 0.5 | COc1ccc(-c2cc3nccn3c(Sc3ccc(CCC(=O)O)cc3OC)n2)cc1OC [Example 9-94] | –
61 | < 0.5 | COc1ccc(-c2cc3nccn3c(Nc3ccc(S(N)(=O)=O)cc3)n2)cc1OC [Example 11-76] | –
62 | < 0.5 | COc1ccc(-c2cc3nccn3c(Nc3ccc(Br)cc3C(N)=O)n2)cc1OC [Example 11-97] | –
63 | < 0.5 | COc1ccc(-c2cc3nccn3c(Nc3ccc(SCC(=O)O)cc3)n2)cc1OC [Example 11-20] | –
64 | < 0.5 | COc1ccc(-c2cc3nccn3c(Nc3ccc(N4CCOCC4)cc3)n2)cc1OC [Example 11-32] | –
65 | < 0.5 | COc1ccc(-c2cc3nccn3c(NCCc3c[nH]c4ccccc34)n2)cc1OC [Example 9-83] | –
66 | < 0.5 | CCOC(=O)Cc1ccc(Nc2nc(-c3ccc(OC)c(OC)c3)cc3nccn23)cc1 [Example 9-23] | –
67 | < 0.5 | CCNc1nc(-c2ccc(OC)c(OC)c2)cc2nccn12 [Example 9-11] | –
68 | 0.5 to 2 | COc1ccc(Nc2nc(-c3ccc(OC)c(OC)c3)cc3nccn23)cc1NC(=O)CN1CCOCC1 [Example 11-83] | –
69 | < 0.5 | CNC(=O)c1ccccc1Nc1nc(-c2ccc(OC)c(OC)c2)cc2nccn12 [Example 11-99] | –
70 | 0.5 to 2 | COc1ccc(-c2cc3nccn3c(Nc3ccccc3C(=O)N(C)C)n2)cc1OC [Example 11-1] | –
71 | < 0.5 | COc1ccc(-c2cc3nccn3c(Nc3ccc(S(C)(=O)=O)cc3)n2)cc1OC [Example 11-127] | –
72 | < 0.5 | COc1ccc(-c2cc3nccn3c(Nc3ccc(CC(=O)O)cc3)n2)cc1OC [Example 11-22] | –
73 | 2 to 10 | CCCCOc1ccc(Nc2nc(-c3ccc(OC)c(OC)c3)cc3nccn23)cc1 [Example 11-94] | –
74 | 0.5 to 2 | COc1ccc(-c2cc3nccn3c(N[C@@H](CO)Cc3ccccc3)n2)cc1OC [Example 9-5] | –
75 | < 0.5 | COC(=O)CCc1ccc(Nc2nc(-c3ccc(OC)c(OC)c3)cc3nccn23)cc1 [Example 9-24] | –
76 | < 0.5 | COc1ccc(-c2cc3nccn3c(Nc3ccccc3O)n2)cc1OC [Example 11-31] | –
